Data set [1] can be described thus: Solubility at pH 6.8. In kind it is physicochemical. The text has this: The physicochemical properties of relevance for the absorption of the compound, such as the solubility and the membrane permeability, especially at a pH close to neutral pH can be measured using the procedure as described by L. ZHOU et al. in JOURNAL OF PHARMACEUTICAL SCIENCES, VOL. 96, NO. 11, p. 3052-3071 (2007) for the solubility at pH 6.8 and the procedure as described by F. Wohnsland and B. Faller in Journal of Medicinal Chemistry Vol 44, p. 923-930 (2001) for the Parallel Artificial Membrane Permeability Assay (PAMPA) at pH 6.8.

Data set [2] relates to PKB Ser473 phosphorylation in Rat1-myr-HA-p110 alpha cells. Description: Reverse protein array assay, PKB Ser473 phosphorylation in Rat1-myr-p110 alpha cells. As to conditions: 0.5 h, pAkt Ser473, 30 minutes compound incubation, read-out: p-PKB IC50. In kind it is cell-based. The method in brief: (§1)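 Lysates were arrayed at four dilutions, and phospho-PKB Ser473 was quantified by relative fluorescence signal. They came from Rat1-myr-HA-p110 alpha, beta or delta cells exposed for 30 min at 37 °C to an 8-point compound series with 0.2% DMSO constant.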

Data set [3] deals with PKB Ser473 phosphorylation in Rat1-myr-HA-p110 beta cells. Description: Reverse protein array assay, PKB Ser473 phosphorylation in Rat1-myr-p110 beta cells. In kind it is cell-based. The conditions noted are these: 0.5 h, pAkt Ser473, 30 minutes incubation, read-out: p-PKB IC50. In a few lines:
as §1

The target of data set [4] is T1, PI3K delta (Homo sapiens, UniProt O00329).
T1 construct: for the full-length p110-d subunit are generated and fused by overlapping PCR; p85(iSH2) fusion partner (see partner chain) (N); His tag (C); made in house; host or cells: baculovirus; Tn5 (Trichoplusia ni) or TiniPro insect cells
Put plainly: PI3K delta kinase assay (Kinase-Glo luminescence). Format: biochemical. The method in brief:
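ATP depletion was measured by Kinase-Glo luminescence after a 60-minute room-temperature reaction containing 1 μM ATP, 10 μg/mL PI and 10 nM His-tagged p85(iSH2)-linker-p110δ (BV-1060). Buffer: Tris pH 7.5, 3 mM MgCl2, 50 mM NaCl, 0.05% CHAPS, 1 mM DTT. IC50 values came from four-parameter fits over eight concentrations.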

Data set [5] has as its target T2, mTOR (Homo sapiens, UniProt P42345).
T2 construct: purchased Invitrogen Corporation (Carlsbad/CA, USA) PV4753
Put plainly: Biochemical assay for m-TOR by TR-FRET. The conditions noted are these: 8 μM ATP, 400 nM GFP-4EBP1, 0.5 nM mTOR. In a few lines:
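mTOR (0.5 nM) was incubated at rt with ATP (8 μM final) and GFP-4EBP1 (400 nM final) in 50 mM HEPES pH 7.5, 10 mM MnCl2, 50 mM NaCl, 1 mM EGTA, 1 mM DTT. EDTA stop with Tb3+-anti-p4EBP1 [pThr46] antibody (0.5 nM); TR-FRET read 15 min later.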
For orientation: Time-resolved FRET reads energy transfer from a long-lived donor to a nearby acceptor.

Data set [6] addresses T3, PI3K alpha (Homo sapiens, UniProt P42336).
T3 construct: p85(iSH2) fusion partner (see partner chain) (N); His tag (C); made in house; host or cells: baculovirus; Tn5 (Trichoplusia ni) or TiniPro insect cells
Description: PI3K alpha kinase assay (Kinase-Glo luminescence). In kind it is biochemical. In a few lines: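 IC50 is taken from a four-parameter logistic fit of 8-point dilutions, with Kinase-Glo luminescence reporting residual ATP. Reactions ran 60 min at room temperature in TRIS pH 7.5 buffer with MgCl2, NaCl, CHAPS and DTT. Final levels were 10 nM enzyme, 1 μM ATP and 10 μg/mL PI.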
A general note: In Kinase-Glo more light means more ATP remaining.

Data set [7] relates to PKB Ser473 phosphorylation in Rat1-myr-HA-p110 delta cells. Put plainly: Reverse protein array assay, PKB Ser473 phosphorylation in Rat1-myr-p110 delta cells. In kind it is cell-based. As to conditions: read-out: p-PKB IC50. The method in brief:
as §1

Data set [8] concerns S6 Ribosomal Protein phosphorylation Ser235/236 in TSC1 null mouse embryo fibroblast (MEF) cells. Put plainly: Reverse protein array assay, S6 Ribosomal Protein phosphorylation Ser235/236 in TSC1 null MEF cells. The conditions noted are these: 1 h, pS6 ribosomal protein Ser235/236, 60 minutes incubation, read-out: p-S6 IC50. In kind it is cell-based. In a few lines: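 TSC1−/− MEFs, seeded and held ≥20 h at 37 °C/5% CO2, were exposed to 8-step serial compound dilutions (0.02% DMSO final; DMSO vehicle control) for 60 min at 37 °C. Cells were then lysed on ice for 10 min and lysates spotted onto reverse protein array chips.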

[9] abbreviates: pH 6.8, aqueous buffer, thermodynamic from solid, read-out: solubility.

In brackets after ≈: the same amount, converted by molar mass. Read-outs that look alike come from different tables or passages of the source.

T1 sequence (O00329 with tags, fused parts or gaps limits assumed): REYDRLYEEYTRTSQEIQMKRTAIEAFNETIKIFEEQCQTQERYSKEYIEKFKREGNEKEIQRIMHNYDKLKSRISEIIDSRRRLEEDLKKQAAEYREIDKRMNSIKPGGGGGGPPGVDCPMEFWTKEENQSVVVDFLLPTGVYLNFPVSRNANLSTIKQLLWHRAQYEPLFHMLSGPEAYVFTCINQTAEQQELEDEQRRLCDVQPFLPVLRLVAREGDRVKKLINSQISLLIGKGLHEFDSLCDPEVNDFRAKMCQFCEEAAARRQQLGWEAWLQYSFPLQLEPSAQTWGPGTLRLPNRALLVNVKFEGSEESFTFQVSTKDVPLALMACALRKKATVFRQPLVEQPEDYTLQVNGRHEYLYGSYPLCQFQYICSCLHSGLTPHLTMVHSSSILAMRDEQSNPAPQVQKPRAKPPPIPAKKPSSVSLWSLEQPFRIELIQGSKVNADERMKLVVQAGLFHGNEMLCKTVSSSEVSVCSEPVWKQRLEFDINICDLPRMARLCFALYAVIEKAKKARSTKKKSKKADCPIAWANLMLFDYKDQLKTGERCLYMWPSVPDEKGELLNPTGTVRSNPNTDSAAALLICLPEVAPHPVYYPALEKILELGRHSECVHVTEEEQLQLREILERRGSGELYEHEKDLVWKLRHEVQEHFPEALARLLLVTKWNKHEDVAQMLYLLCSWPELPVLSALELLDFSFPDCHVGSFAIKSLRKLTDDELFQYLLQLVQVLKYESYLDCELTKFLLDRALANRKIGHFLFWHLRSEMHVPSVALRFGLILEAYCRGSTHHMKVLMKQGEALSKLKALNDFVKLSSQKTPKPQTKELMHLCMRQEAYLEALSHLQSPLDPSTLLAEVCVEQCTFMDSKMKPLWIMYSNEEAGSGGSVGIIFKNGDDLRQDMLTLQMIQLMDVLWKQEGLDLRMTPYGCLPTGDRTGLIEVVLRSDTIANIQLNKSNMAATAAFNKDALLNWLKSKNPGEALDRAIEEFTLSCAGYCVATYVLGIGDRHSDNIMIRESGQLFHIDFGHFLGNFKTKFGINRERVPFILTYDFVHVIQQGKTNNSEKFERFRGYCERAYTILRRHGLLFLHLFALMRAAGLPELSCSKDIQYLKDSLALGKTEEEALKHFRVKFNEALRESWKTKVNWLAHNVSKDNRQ
T3 sequence (P42336 with tags, fused parts or gaps limits assumed): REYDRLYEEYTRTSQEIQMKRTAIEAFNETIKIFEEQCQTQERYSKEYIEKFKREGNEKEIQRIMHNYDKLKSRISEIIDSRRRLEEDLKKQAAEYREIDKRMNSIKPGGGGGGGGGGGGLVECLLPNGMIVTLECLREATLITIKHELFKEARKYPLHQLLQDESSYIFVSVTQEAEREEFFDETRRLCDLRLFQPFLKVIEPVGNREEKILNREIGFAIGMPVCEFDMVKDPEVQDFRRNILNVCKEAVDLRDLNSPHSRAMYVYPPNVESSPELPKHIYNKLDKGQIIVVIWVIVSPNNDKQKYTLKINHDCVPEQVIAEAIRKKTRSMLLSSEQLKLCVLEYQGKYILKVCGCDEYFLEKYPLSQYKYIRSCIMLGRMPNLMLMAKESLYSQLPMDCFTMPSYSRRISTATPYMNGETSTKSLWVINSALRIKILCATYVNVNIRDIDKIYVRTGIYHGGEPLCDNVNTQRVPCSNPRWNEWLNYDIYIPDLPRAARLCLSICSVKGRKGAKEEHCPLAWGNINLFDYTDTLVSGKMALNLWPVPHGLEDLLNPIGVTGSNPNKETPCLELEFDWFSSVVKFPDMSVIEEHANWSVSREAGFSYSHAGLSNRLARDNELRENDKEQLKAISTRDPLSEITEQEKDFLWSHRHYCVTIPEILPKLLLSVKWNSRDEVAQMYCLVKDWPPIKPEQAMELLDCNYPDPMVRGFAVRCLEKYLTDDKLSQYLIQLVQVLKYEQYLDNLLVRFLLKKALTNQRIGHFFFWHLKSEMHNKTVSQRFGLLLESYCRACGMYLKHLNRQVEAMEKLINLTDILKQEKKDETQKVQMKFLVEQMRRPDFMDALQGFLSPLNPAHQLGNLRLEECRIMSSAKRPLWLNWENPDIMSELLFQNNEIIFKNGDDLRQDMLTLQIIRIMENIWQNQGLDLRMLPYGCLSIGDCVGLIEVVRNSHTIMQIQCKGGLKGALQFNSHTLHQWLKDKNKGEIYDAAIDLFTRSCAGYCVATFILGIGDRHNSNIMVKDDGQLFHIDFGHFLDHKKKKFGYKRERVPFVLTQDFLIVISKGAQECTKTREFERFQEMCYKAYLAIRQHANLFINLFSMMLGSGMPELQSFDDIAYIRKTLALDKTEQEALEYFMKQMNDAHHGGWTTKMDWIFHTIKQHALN
T2 sequence (P42345 1360-2549 limits assumed): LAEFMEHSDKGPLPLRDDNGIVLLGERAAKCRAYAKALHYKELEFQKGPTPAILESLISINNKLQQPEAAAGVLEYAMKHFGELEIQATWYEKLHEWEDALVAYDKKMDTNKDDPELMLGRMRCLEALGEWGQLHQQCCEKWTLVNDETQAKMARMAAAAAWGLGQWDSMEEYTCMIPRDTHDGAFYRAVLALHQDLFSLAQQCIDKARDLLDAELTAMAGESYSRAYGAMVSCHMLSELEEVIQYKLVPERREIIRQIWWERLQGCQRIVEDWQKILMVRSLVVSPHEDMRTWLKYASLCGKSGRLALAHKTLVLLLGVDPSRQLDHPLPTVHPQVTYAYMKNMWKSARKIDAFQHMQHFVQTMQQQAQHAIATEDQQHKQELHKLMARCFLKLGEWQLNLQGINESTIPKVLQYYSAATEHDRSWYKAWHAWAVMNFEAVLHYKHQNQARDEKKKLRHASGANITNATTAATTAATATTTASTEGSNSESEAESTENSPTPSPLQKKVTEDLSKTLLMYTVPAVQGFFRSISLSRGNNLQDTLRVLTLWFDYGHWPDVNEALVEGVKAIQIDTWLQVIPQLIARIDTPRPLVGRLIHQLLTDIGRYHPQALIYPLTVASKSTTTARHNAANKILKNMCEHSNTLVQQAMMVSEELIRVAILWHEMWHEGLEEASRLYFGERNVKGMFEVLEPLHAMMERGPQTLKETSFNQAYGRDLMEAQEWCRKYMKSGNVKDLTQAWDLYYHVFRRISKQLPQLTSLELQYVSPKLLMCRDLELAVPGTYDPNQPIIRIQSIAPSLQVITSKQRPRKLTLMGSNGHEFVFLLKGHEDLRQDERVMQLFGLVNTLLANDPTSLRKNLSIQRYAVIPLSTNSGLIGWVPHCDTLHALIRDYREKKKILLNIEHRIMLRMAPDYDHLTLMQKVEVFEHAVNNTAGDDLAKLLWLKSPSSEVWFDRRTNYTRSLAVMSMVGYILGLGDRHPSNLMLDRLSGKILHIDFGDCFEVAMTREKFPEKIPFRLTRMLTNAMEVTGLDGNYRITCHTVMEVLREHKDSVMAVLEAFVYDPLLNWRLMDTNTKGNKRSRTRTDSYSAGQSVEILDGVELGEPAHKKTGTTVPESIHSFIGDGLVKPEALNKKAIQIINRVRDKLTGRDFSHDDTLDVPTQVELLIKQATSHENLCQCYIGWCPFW

A word on the solubility: it is how much of the substance goes into solution per volume. As usually defined, the IC50 is the concentration that inhibits the measured activity by half. Turning to `Cc1nn(C)cc1-n1c(=O)n(C)c2cnc3ccc(-c4ccc(N5CC[C@H](O)C5)nc4)cc3c21` [Example 212.2, 1-(1,3-Dimethyl-1H-pyrazol-4-yl)-8-[6-((S)-3-hydroxy-pyrrolidin-1-yl)-pyridin-3-yl]-3-methyl-1,3-dihydro-imidazo[4,5-c]quinolin-2-one], in data set [1] (setting [9]), the solubility came to 43 µg/mL (≈ 94.4 µM). Further, the half-maximal inhibitory concentration (IC50) came out at 115 nM in data set [2]; 185 nM in data set [3]; 647 nM in data set [4]; 92 nM in data set [5]; 215 nM in data set [6].

For the molecule `Cc1nn(C)cc1-n1c(=O)n(C)c2cnc3ccc(-c4ccnc(N(C)C(C)C)c4)cc3c21` [Example 130, 1-(1,3-Dimethyl-1H-pyrazol-4-yl)-8-[2-(isopropyl-methyl-amino)-pyridin-4-yl]-3-methyl-1,3-dihydro-imidazo[4,5-c]quinolin-2-one], in data set [1] (setting [9]), the solubility turned out to be 74 µg/mL (≈ 168 µM). For the same molecule, the IC50 in data set [2] came to 330 nM; in data set [4] it was 386 nM; in data set [5], 494 nM; in data set [6], 785 nM.

`Cc1nn(C)cc1-n1c(=O)n(C)c2cnc3ccc(-c4ccccn4)cc3c21` [Example 114, 1-(1,3-Dimethyl-1H-pyrazol-4-yl)-3-methyl-8-pyridin-2-yl-1,3-dihydro-imidazo[4,5-c]quinolin-2-one]: in data set [1] (setting [9]), the solubility stood at 61 µg/mL (≈ 165 µM). For the same molecule, the IC50 in data set [2] came out at 303 nM; in data set [3] it was 725 nM.

For the molecule `CCN(C)c1ccc(-c2ccc3ncc4c(c3c2)n(-c2cn(CC)nc2C)c(=O)n4C)cn1` [Example 98.3, 8-[6-(Ethyl-methyl-amino)-pyridin-3-yl]-1-(1-ethyl-3-methyl-1H-pyrazol-4-yl)-3-methyl-1,3-dihydro-imidazo[4,5-c]quinolin-2-one], the solubility in data set [1] (setting [9]) worked out at 10 µg/mL (≈ 22.6 µM). Further, the IC50 in data set [2] stood at 12 nM; in data set [3], 16 nM; in data set [4], 72 nM; in data set [5], 22 nM; in data set [7], 43 nM; in data set [6], 55 nM.

In the case of `Cc1nn(C)cc1-n1c(=O)n(C)c2cnc3ccc(-c4cnn(CCO)c4)cc3c21` [Example 106, 1-(1,3-Dimethyl-1H-pyrazol-4-yl)-8-[1-(2-hydroxy-ethyl)-1H-pyrazol-4-yl]-3-methyl-1,3-dihydro-imidazo[4,5-c]quinolin-2-one], the solubility in data set [1] (setting [9]) is greater than 403 µg/mL. The values for the IC50 in data set [4], in data set [5] and in data set [6] were 147 nM, 672 nM and 154 nM, respectively.

Consider `CC(=O)NCc1cncc(-c2ccc3ncc4c(c3c2)n(-c2cn(C)nc2C)c(=O)n4C)c1` [Example 231, N-{5-[1-(1,3-Dimethyl-1H-pyrazol-4-yl)-3-methyl-2-oxo-2,3-dihydro-1H-imidazo[4,5-c]quinolin-8-yl]-pyridin-3-ylmethyl}-acetamide], for which, in data set [1] (setting [9]), the solubility amounted to 413 µg/mL (≈ 935 µM). For the same molecule, the IC50 in data set [5] was found to be 542 nM; in data set [6] it was 405 nM.

For `CCN(C)c1ccc(-c2ccc3ncc4c(c3c2)n(-c2cn(C(C)C)nc2C)c(=O)n4C)cn1` [Example 98.2, 8-[6-(Ethyl-methyl-amino)-pyridin-3-yl]-1-(1-isopropyl-3-methyl-1H-pyrazol-4-yl)-3-methyl-1,3-dihydro-imidazo[4,5-c]quinolin-2-one], the solubility in data set [1] (setting [9]) was 75 µg/mL (≈ 165 µM). The IC50 in data set [2] stood at 10 nM; in data set [3], 18 nM; in data set [4] it was 101 nM; in data set [5], 30 nM; in data set [7], 59 nM; in data set [6], 118 nM.

Regarding `CN(C)c1ccc(-c2ccc3ncc4c(c3c2)n(-c2ccnn2C)c(=O)n4C)cn1` [Example 4.7, 8-(6-Dimethylamino-pyridin-3-yl)-3-methyl-1-(2-methyl-2H-pyrazol-3-yl)-1,3-dihydro-imidazo[4,5-c]quinolin-2-one], the solubility in data set [1] (setting [9]) came out at 3 µg/mL (≈ 7.51 µM). Also, the IC50 in data set [2] was found to be 134 nM; in data set [3] it was 121 nM; in data set [5], 505 nM; in data set [7], 547 nM; in data set [6], 461 nM.

Consider `Cn1nccc1-n1c(=O)n(C)c2cnc3ccc(-c4ccc(C(F)(F)F)nc4)cc3c21` [Example 8.1, 3-Methyl-1-(2-methyl-2H-pyrazol-3-yl)-8-(6-trifluoromethyl-pyridin-3-yl)-1,3-dihydro-imidazo[4,5-c]quinolin-2-one], for which the solubility in data set [1] (setting [9]) stood at 18 µg/mL (≈ 42.4 µM). Besides, the IC50 in data set [2] amounted to 589 nM; in data set [4] it was 167 nM; in data set [5], 734 nM; in data set [6] it was 210 nM.

In the case of `Cc1nn(C)cc1-n1c(=O)n(C)c2cnc3ccc(-c4cnc5c(c4)nc(C)n5C)cc3c21` [Example 73, 8-(2,3-Dimethyl-3H-imidazo[4,5-b]pyridin-6-yl)-1-(1,3-dimethyl-1H-pyrazol-4-yl)-3-methyl-1,3-dihydro-imidazo[4,5-c]quinolin-2-one], the solubility in data set [1] (setting [9]) turned out to be 41 µg/mL (≈ 93.5 µM). Besides, the IC50 in data set [2] was 337 nM; in data set [3], 417 nM; in data set [4], 372 nM; in data set [5] it was 160 nM; in data set [7] it was 530 nM; in data set [6], 173 nM.

With `Cc1nn(C)cc1-n1c(=O)n(C)c2cnc3ccc(-c4cnc5c(c4)n(C)c(=O)n5C)cc3c21` [Example 67, 8-(1,3-Dimethyl-2-oxo-2,3-dihydro-1H-imidazo[4,5-b]pyridin-6-yl)-1-(1,3-dimethyl-1H-pyrazol-4-yl)-3-methyl-1,3-dihydro-imidazo[4,5-c]quinolin-2-one], the solubility in data set [1] (pH 6.8) is 2 µg/mL (≈ 4.4 µM). Moreover, the values for the IC50 in data set [2], in data set [3] and in data set [7] were 166 nM, 171 nM and 298 nM, respectively.

As to `Cc1nn(CC(=O)N(C)C)c(C)c1-n1c(=O)n(C)c2cnc3ccc(-c4ccccc4)cc3c21` [Example 37.4, 2-[3,5-Dimethyl-4-(3-methyl-2-oxo-8-phenyl-2,3-dihydro-imidazo[4,5-c]quinolin-1-yl)-pyrazol-1-yl]-N,N-dimethyl-acetamide], the solubility in data set [1] (setting [9]) came out at 37 µg/mL (≈ 81.4 µM). Also, the IC50 in data set [8] stood at 844 nM; in data set [6], 266 nM.

For the molecule `Cn1nccc1-n1c(=O)n(C)c2cnc3ccc(-c4ccnc(F)c4)cc3c21` [Example 11, 8-(2-Fluoro-pyridin-4-yl)-3-methyl-1-(2-methyl-2H-pyrazol-3-yl)-1,3-dihydro-imidazo[4,5-c]quinolin-2-one], in data set [1] (pH 6.8), the solubility came to 2 µg/mL (≈ 5.34 µM). In addition, the IC50 in data set [4] was found to be 810 nM.

Turning to `CNC(=O)Cc1cncc(-c2ccc3ncc4c(c3c2)n(-c2cn(C)nc2C)c(=O)n4C)c1` [Example 228, 2-{5-[1-(1,3-Dimethyl-1H-pyrazol-4-yl)-3-methyl-2-oxo-2,3-dihydro-1H-imidazo[4,5-c]quinolin-8-yl]-pyridin-3-yl}-N-methyl-acetamide], in data set [1] (setting [9]), the solubility is greater than 441 µg/mL. The IC50 was determined as 166 nM in data set [4] and 85 nM in data set [6].

In the case of `Cc1cc(-n2c(=O)n(C)c3cnc4ccc(-c5cccnc5F)cc4c32)n(C)n1` [Example 9, 1-(2,5-Dimethyl-2H-pyrazol-3-yl)-8-(2-fluoro-pyridin-3-yl)-3-methyl-1,3-dihydro-imidazo[4,5-c]quinolin-2-one], the solubility in data set [1] (setting [9]) amounted to 9 µg/mL (≈ 23.2 µM). For the same molecule, the IC50 in data set [4] was determined as 737 nM; in data set [5], 383 nM; in data set [6] it was 246 nM.
